Test results taken from patent US5462952A, “Fenamate 1,3,4-thiadiazoles and 1,3,4-oxadiazoles as antiinflammatory agents” (Warner-Lambert Company, priority 1993, dated 1995).
Structures can show the parent of a compound that is named as a salt. Where two headings read alike, the source gives them in different places.

Legend:
5-Lipoxygenase = molecular target: T1, 5-Lipoxygenase (Rattus norvegicus, UniProt P12527); experiment: ARBL whole cell 5-lipoxygenase assay (LTB4 formation in RBL-1 cells, A23187-stimulated); assay type: cell-based; design: key to ARBL, activity at the screening dose: Not active at the screening dose; settings: for ARBL, activity at the screening dose: Table 2, screening dose, class symbol N; for IC50: Table 2; for inhibition at 10 µM: Table 2, @ 10 μM
T1 construct: host or cells: RBL-1 (rat basophilic leukemia)
T1 sequence (P12527 1-673): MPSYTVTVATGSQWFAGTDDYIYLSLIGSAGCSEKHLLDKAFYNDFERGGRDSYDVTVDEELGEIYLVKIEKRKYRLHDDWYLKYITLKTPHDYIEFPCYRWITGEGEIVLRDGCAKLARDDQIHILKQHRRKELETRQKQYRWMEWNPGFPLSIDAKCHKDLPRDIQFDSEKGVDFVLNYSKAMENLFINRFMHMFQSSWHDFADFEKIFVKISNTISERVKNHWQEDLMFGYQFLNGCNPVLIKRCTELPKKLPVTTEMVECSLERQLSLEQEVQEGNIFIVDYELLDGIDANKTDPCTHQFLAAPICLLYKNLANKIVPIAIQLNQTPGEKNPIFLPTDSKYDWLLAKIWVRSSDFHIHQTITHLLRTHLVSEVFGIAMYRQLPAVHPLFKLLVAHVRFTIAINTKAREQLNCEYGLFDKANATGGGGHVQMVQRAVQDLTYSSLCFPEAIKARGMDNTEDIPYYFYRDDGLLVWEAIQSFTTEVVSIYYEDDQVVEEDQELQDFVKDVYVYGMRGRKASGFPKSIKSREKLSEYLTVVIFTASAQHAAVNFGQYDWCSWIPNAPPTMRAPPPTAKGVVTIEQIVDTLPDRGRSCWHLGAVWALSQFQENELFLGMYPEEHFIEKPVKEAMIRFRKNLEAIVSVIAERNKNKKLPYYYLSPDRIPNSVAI
Protocol: (§1) The rat basophilic leukemia cell line (RBL-1) was obtained from the American Type Culture Collection (Rockville, Md.).
(§2) Radioimmunoassay (RIA) kits of LTB4 and PGF2α were obtained from Amersham (Arlington Heights, Ill.) and Seragen (Boston, Mass.), respectively.
(§3) RBL-1 cells are grown in suspension culture in Eagle's minimum essential medium supplemented with 12% fetal bovine serum at 37° C. in an incubator supplied with air-5% carbon dioxide. Cells are harvested by centrifugation. They are washed with cold phosphate buffered saline pH 7.4 (PBS; NaCl, 7.1 g; Na2 HPO4, 1.15 g; KH2 PO4, 0.2 g; and KCl, 0.2 g/l). Cells are finally suspended in PBS containing 1.0 mM calcium at a density of 2×10^6 cells/ml. Cells are incubated with and without test agent (in DMSO) (1% DMSO is without effect on arachidonic acid metabolism) for ten minutes at room temperature. Calcium ionophore A23187 (5 μM) is added and cells are incubated for seven minutes at 37° C. The reaction is stopped by chilling the tubes on ice for ten minutes. Cells are separated by centrifugation and the supernatant is stored at -20°. Aliquots (100 μl) are analyzed for LTB4 and PGF2α using radioimmunoassay kits as provided by the supplier.
(§4) Tables 1 and 2 contain biochemical data obtained from the whole cell assay described above as IC50 s which are calculated as the concentration of test compound causing 50% inhibition of LTB4 or PGF2α formation. Table 2 also provides the dose at which 40% of swelling is inhibited in the CFE-2 assay.

Cyclooxygenase = experiment: ARBC whole cell cyclooxygenase assay (PGF2α formation in RBL-1 cells, A23187-stimulated); assay type: cell-based, rat; design: key to ARBC, activity at the screening dose: Not active at the screening dose; settings: for ARBC, activity at the screening dose: Table 2, screening dose
Protocol: as §1, §2, §3, §4

[1] = tested on: Carrageenan-Induced Rat Foot Paw Edema; experiment: Carrageenan-Induced Rat Foot Paw Edema-2 (CFE-2) Assay; assay type: in vivo; settings: 5 h, Table 2, dosed one hour before carrageenan, edema at five hours, probit analysis, read-out: CFE, ID40 (dose at which 40% inhibition of swelling occurs)
Protocol: Carrageenan solution (1% w/v) is prepared by dissolving 100 mg carrageenan (Marine Colloidal Div., Springfield, N.J.) in 10 ml of sterile saline (0.9%) solution (Travenol). The solution is vortexed for 30 to 45 minutes. Animals are dosed with compound one hour before carrageenan challenge. Foot paw edema is induced by injecting 0.10 ml of the 1% carrageenan subcutaneously into the plantar portion of the right hind paw of each rat under light anesthesia. Initial foot paw volume is measured immediately following carrageenan challenge using mercury plethysmography (Buxco Electronics). Edema is measured five hours after carrageenan. The difference between the 5-hour and the initial paw volume is expressed as delta edema. The delta edema for each test group of animals is used to calculate the percent inhibition of edema achieved by the compound at the test dose compared with the vehicle control group. The data in Table 1 (the dose at which swelling is inhibited by the noted) is calculated by probit analysis for the dose at which 40% inhibition occurs.
as §4

[2] = Table 1, 16 μM, read-out: ARBL, % inhibition of LTB4 at 16 μM
[3] = read-out: ARBL, % inhibition at given concentration

Cc1ccc(Cl)c(Nc2ccccc2-c2n[nH]c(=O)o2)c1Cl [Example 1]
ARBL, activity at the screening dose (5-Lipoxygenase): N
ARBC, activity at the screening dose (Cyclooxygenase; class symbol N): N

Cc1ccc(Cl)c(Nc2ccccc2-c2n[nH]c(=S)o2)c1Cl [Example 2, 5-[2-[(2,6-Dichloro-3-methylphenyl)amino]phenyl]-1,3,4-oxadiazol-2(3H)-thione]
inhibition at 16 µM (5-Lipoxygenase; [2]): 97%
IC50 (5-Lipoxygenase): 740 nM
IC50 (Cyclooxygenase; Table 1, footnote c): 700 nM
IC50 (Cyclooxygenase; Table 2): 700 nM

Cc1ccc(Cl)c(Nc2ccccc2-c2nnc(N)s2)c1Cl [Example 4, 5-[2-[(2,6-Dichloro-3-methylphenyl)amino]phenyl]-1,3,4-thiadiazol-2-amine]
IC50 (5-Lipoxygenase): 600 nM
IC50 (Cyclooxygenase; Table 1, footnote c): 6100 nM
IC50 (Cyclooxygenase; Table 2): 6100 nM

Cc1ccc(Cl)c(Nc2ccccc2-c2n[nH]c(=S)s2)c1Cl [Example 5, 5-[2-[(2,6-Dichloro-3-methylphenyl)amino]phenyl]-1,3,4-thiadiazol-2(3H)-thione]
inhibition at 16 µM (5-Lipoxygenase; Table 2, @ 16 μM, read-out: ARBL, % inhibition at given concentration): 100%
ARBC, % inhibition at given concentration (Cyclooxygenase; Table 2, @ 16 μM): 47%

FC(F)(F)c1cccc(Nc2ccccc2-c2n[nH]c(=S)o2)c1 [Example 6, 5-[2-[[3-(Trifluoromethyl)phenyl]amino]phenyl]-1,3,4-oxadiazol-2(3H)-thione]
IC50 (5-Lipoxygenase): 770 nM
ED40 [1]: 8.5 mg/kg
IC50 (Cyclooxygenase; Table 2): 270 nM

S=c1[nH]nc(Cc2ccccc2Nc2c(Cl)cccc2Cl)o1 [Example 7, 5-[[2-[(2,6-Dichlorophenyl)amino]phenyl]methyl]-1,3,4-oxadiazol-2(3H)-thion]
inhibition at 16 µM (5-Lipoxygenase; [2]): 88%
ARBC, % inhibition of PGF2α at 16 μM (Cyclooxygenase; Table 1, 16 μM, class symbol N): N (Less than 40% inhibition at 16 μM)

Cc1cccc(Nc2ccccc2-c2n[nH]c(=O)o2)c1C [Example 8, 5-[2-[(2,3-Dimethylphenyl)amino]phenyl]-1,3,4-oxadiazol-2(3H)-one]
ARBL, activity at the screening dose (5-Lipoxygenase): N
ARBC, activity at the screening dose (Cyclooxygenase; class symbol N): N

Cc1cccc(Nc2ccccc2-c2n[nH]c(=S)o2)c1C [Example 9, 5-[2-[(2,3-Dimethylphenyl)amino]phenyl]-1,3,4-oxadiazole-2(3H)-thione]
IC50 (5-Lipoxygenase): 1000 nM

Nc1nnc(-c2ccccc2Nc2cccc(C(F)(F)F)c2)s1 [Example 10, 5-[2-[(3-Trifluoromethylphenyl)amino]phenyl]-1,3,4-thiadiazol-2-amine]
IC50 (5-Lipoxygenase): 690 nM
IC50 (Cyclooxygenase; Table 2): 11000 nM

FC(F)(F)c1cccc(Nc2ccccc2-c2n[nH]c(=S)s2)c1 [Example 12, 5-[2-[(3-Trifluoromethylphenyl)amino]phenyl]-1,3,4-thiadiazole-2(3H)-thione]
IC50 (5-Lipoxygenase): 870 nM
ED40 [1]: 4.7 mg/kg
IC50 (Cyclooxygenase; Table 2): 850 nM

Nc1nnc(-c2ccccc2Nc2cccc(C(F)(F)F)c2)o1 [Example 16, 5-[2-[[3-(Trifluoromethyl)phenyl]amino]phenyl]-1,3,4-oxadiazol-2-amine]
IC50 (5-Lipoxygenase): 680 nM
IC50 (Cyclooxygenase; Table 2): 7120 nM

Cc1ccc(Cl)c(Nc2ccccc2-c2nnc(N)o2)c1Cl [Example 17, 5-[2-[[2,6-Dichloro-3-methylphenyl]amino]phenyl]-1,3,4-oxadiazol-2-amine]
inhibition at 10 µM (5-Lipoxygenase; [3]): 45%
ARBC, activity at the screening dose (Cyclooxygenase; class symbol N): N

Cc1ccc(Cl)c(Nc2ccccc2-c2nnco2)c1Cl [Example 18, 2,6-Dichloro-3-methyl-N-[2-(1,3,4-oxadiazol-2-yl)phenyl]benzenamine]
ARBL, activity at the screening dose (5-Lipoxygenase): N
ARBC, activity at the screening dose (Cyclooxygenase; class symbol N): N

CSc1nnc(-c2ccccc2Nc2c(Cl)ccc(C)c2Cl)o1 [Example 19, 2,6-Dichloro-3-methyl-N-[2-[5-(methylthio)-1,3,4-oxadiazol-2-yl]phenyl]benzenamine]
ARBL, activity at the screening dose (5-Lipoxygenase): N
ARBC, % inhibition at given concentration (Cyclooxygenase; Table 2, @ 10 μM): 55%

Cc1ccc(Cl)c(Nc2ccccc2-c2nnc(S(C)(=O)=O)o2)c1Cl [Example 20, 2,6-Dichloro-3-methyl-N-[2-[5-(methylsulfonyl)-1,3,4-oxadiazol-2-yl]phenyl]benzenamine]
IC50 (5-Lipoxygenase): 6320 nM
IC50 (Cyclooxygenase; Table 2): 3000 nM

Cc1ccc(Cl)c(Nc2ccccc2-c2nnc([S+](C)[O-])o2)c1Cl (stereo not shown) [Example 21, 2,6-Dichloro-3-methyl-N-[2-[5-(methylsulfinyl)-1,3,4-oxadiazol-2-yl]phenyl]benzenamine]
IC50 (5-Lipoxygenase): 910 nM
IC50 (Cyclooxygenase; Table 2): 1790 nM

Cc1ccc(Cl)c(Nc2ccccc2-c2nnc(NC(=N)N)o2)c1Cl [Example 22, 5-[2-[(2,6-dichloro-3-methylphenyl)amino]phenyl]-1,3,4-oxadiazol-2-yl-guanidine monohydrochloride]
inhibition at 10 µM (5-Lipoxygenase; [3]): 46%
ARBC, activity at the screening dose (Cyclooxygenase; class symbol N): N

Cc1ccc(Cl)c(Nc2ccccc2-c2nnc(NC#N)o2)c1Cl [Example 23, 5-[2-[(2,6-Dichloro-3-methylphenyl)amino]phenyl]-1,3,4-oxadiazol-2-yl-cyanamide]
IC50 (5-Lipoxygenase): 890 nM
IC50 (Cyclooxygenase; Table 2): 250 nM

CSc1nnc(-c2ccccc2Nc2cccc(C(F)(F)F)c2)o1 [Example 24, N-[2-[5-(Methylthio)-1,3,4-oxadiazol-2-yl]phenyl]-3-trifluoromethyl benzenamine]
ARBL, activity at the screening dose (5-Lipoxygenase): N
ARBC, % inhibition at given concentration (Cyclooxygenase; Table 2, @ 10 μM): 44%

CS(=O)(=O)c1nnc(-c2ccccc2Nc2cccc(C(F)(F)F)c2)o1 [Example 25, N-[2-[5-(Methylsulfonyl)-1,3,4-oxadiazol-2-yl]phenyl]-3-trifluoromethyl benzenamine]
ARBL, activity at the screening dose (5-Lipoxygenase): N
ARBC, % inhibition at given concentration (Cyclooxygenase; Table 2, @ 10 μM): 48%

N#CNc1nnc(-c2ccccc2Nc2cccc(C(F)(F)F)c2)o1 [Example 26, 5-[2-[[3-(Trifluoromethyl)phenyl]amino]phenyl]-1,3,4-oxadiazol-2-yl-cyanamide]
IC50 (Cyclooxygenase; Table 2): 1040 nM

N=C(N)Nc1nnc(-c2ccccc2Nc2cccc(C(F)(F)F)c2)o1 [Example 27, 5-[2-[[3-(Trifluoromethyl)phenyl]amino]phenyl]-1,3,4-oxadiazol-2-yl-guanidine hydrochloride]
inhibition at 10 µM (5-Lipoxygenase; [3]): 100%
ARBC, activity at the screening dose (Cyclooxygenase; class symbol N): N

CSc1nnc(-c2ccccc2Nc2c(Cl)ccc(C)c2Cl)s1 [Example 28, 2,6-Dichloro-3-methyl-N-[2-[5-(methylthio)-1,3,4-thiadiazol-2-yl]phenyl]benzenamine]
ARBL, activity at the screening dose (5-Lipoxygenase): N
ARBC, % inhibition at given concentration (Cyclooxygenase; Table 2, @ 10 μM): 60%

Cc1ccc(Cl)c(Nc2ccccc2-c2nnc([S+](C)[O-])s2)c1Cl (stereo not shown) [Example 29, 2,6-Dichloro-3-methyl-N-[2-[5-(methylsulfinyl)-1,3,4-thiadiazol-2-yl]phenyl]benzenamine]
IC50 (5-Lipoxygenase): 3300 nM
IC50 (Cyclooxygenase; Table 2): 8480 nM

CSc1nnc(-c2ccccc2Nc2cccc(C(F)(F)F)c2)s1 [Example 30, 3-Trifluoromethyl-N-[2-[5-(methylthio)-1,3,4-thiadiazol-2-yl]phenyl]benzenamine]
inhibition at 10 µM (5-Lipoxygenase; [3]): 66%
ARBC, % inhibition at given concentration (Cyclooxygenase; Table 2, @ 10 μM): 44%

C[S+]([O-])c1nnc(-c2ccccc2Nc2cccc(C(F)(F)F)c2)s1 (stereo not shown) [Example 31]
inhibition at 10 µM (5-Lipoxygenase; [3]): 100%
ARBC, % inhibition at given concentration (Cyclooxygenase; Table 2, @ 10 μM): 51%
